Test system: T. bisselliella antenna
Assay: Coupled gas chromatographic-electroantennographic detection (GC-EAD)
Design: species or system Tineola bisselliella
Conditions: male and gravid female T. bisselliella antenna; 5 pelt-min of squirrel pelt volatile extract
Procedure: Samples of animal pelt (150 cm^2) were aerated for one week in a cylindrical Pyrex glass chamber. A water-aspirator was used to draw charcoal-filtered, humidified air at 2 L/min through the chamber and a glass column (14 cm×13 mm O. D.) filled with Porapak Q. Volatiles captured on Porapak Q were eluted with 5 ml of redistilled pentane and the eluent concentrated to 2 ml by distillation in a 30 cm Dufton column, adjusting the volatile extract so that 2 μl equalled 5 pelt-min of volatile collection. Aliquots of 2.5 pelt-min equivalents of Porapak Q-captured volatile extracts were analysed by coupled gas chromatographic-electroantennographic detection (GC-EAD) (28) (FIG. 2).
FIG. 2 illustrates flame ionization detector (FID) and electroantennographic detector (EAD ♂: male T. bisselliella antenna; EAD ♀: gravid female T. bisselliella antenna) responses to 5 pelt-min of squirrel pelt volatile extract. Chromatography: Hewlett Packard (HP) 5890A gas chromatograph equipped with a fused silica column (30 m×0.25 mm ID) coated with DB-5; linear flow velocity of carrier gas: 35 cm/sec; injector and FID detector temperature: 240° C.; temperature program: 1 min at 50° C., 20° C./min to 70° C. then 7.5° C./min to 280° C. (J & W Scientific, Folsom, Calif. 95630). EAD-active compounds were analyzed by GC-mass spectrometry (MS) in full scan electron impact (EI) and chemical ionization (isobutane) (CI) modes, using a Varian Saturn II Ion Trap GC-MS and a HP 5985B GC-MS. Antennally-active compounds were identified as follows: 1. hexanal (20.0); 2. heptanal (35.0); 3. octanal (55.0); 4. nonanal (80.0); 5. decanal (20.0); 6. dodecanal (4.0); 7. tridecanal (6.0); 8. tetradecanal (5.0); 9. pentadecanal (0.8); 10. hexadecanal (1.0); 11. heptadecanal (0.7); 12. octadecanal (0.1); 13. heptanol (10.0); 14. nonanol (10.0); 15. decanol (12.0); 16. undecanol (200.0); 17. dodecanol (10.0); 18. tridecanol (70.0); 19. tetradecanol (3.0); 20. pentadecanol (2.0); 21. hexadecanol (0.3); 22. heptadecanol (0.5); 23. octadecanol (0.1); 24. tetradecane (20.0); 25. pentadecane (100.0); 26. hexadecane (100.0); 27. eicosane (20.0); 28. uneicosane (0.7); 29.2-undecanal (4.0); 30. E2-nonenal (9.0); 31. E2-decenal (11.0); 32. geranylacetone (1.0). Numbers in brackets refer to nanogram quantities present in 15 pelt-min of aeration of dried, untanned animal pelt (150 cm^2).
The bodies of two hundred 24-48 hour old virgin male T. bisselliella were extracted for 15 min in methanol.
FIG. 6 illustrates flame ionization detector (FID) and electroantennographic detection (EAD: male T. bisselliella antenna) responses to one male equivalent of male T. bisselliella body extract. EAD-active compounds 1-3 were identified by GC-mass spectrometry as 1. hexadecanoic acid methyl ester; 2. (Z)-9-hexadecenoic acid methyl ester; and 3. octadecanoic acid methyl ester. […] Chromatography: Hewlett Packard (HP) 5890A gas chromatograph equipped with a fused silica column (30 m×0.32 mm ID) coated with DB-23 (J & W Scientific, Folsom, Calif. 95630); linear flow velocity of carrier gas: 35 cm/sec; injector and FID detector temperature: 240° C.; temperature program: 1 min at 50° C., 10° C./min to 200° C. EAD-active compounds were identified by GC-mass spectrometry (MS) in full scan electron impact (EI) mode using a Varian Saturn II Ion Trap GC-MS.
Terminal abdominal segments with pheromone glands of one-hundred 12-48 hour-old virgin females were severed and extracted for 5-15 min in hexane.
FIG. 10 illustrates flame ionization detector (FID) and electroantennographic detector (EAD: male T. bisselliella antenna) responses to one female equivalent of female T. bisselliella pheromone gland extract. EAD-active compounds 1-3 were identified as 1. (E,Z)-2,13:octadecadienol (E2,Z13-18:OH) and 2. (E,Z)-2,13:octadecadienal (E2,Z13-18:Ald). […]

Q: With `CCCCCCCCCC(C)=O` [2-undecanal] as the compound, how does the “electroantennographic detector (EAD) response to components of squirrel pelt volatile extract” value (“electroantennographic detector” for short) read?
A: Antennally-active

Q: Which “electroantennographic detector” value does the source give for `CCCCCCC/C=C/C=O` [E2-decenal] here?
A: Antennally-active

Q: With `CCCCCC/C=C/C=O` [E2-nonenal] as the compound, how does the “electroantennographic detector” value read?
A: Antennally-active

Q: For `CCCCCCCCCC=O` [decanal], which “electroantennographic detector” value is on record?
A: Antennally-active

Q: With `CCCCCCCCCCO` [decanol] as the compound, how does the “electroantennographic detector” value read?
A: Antennally-active

Q: For `CCCCCCCCCCCC=O` [dodecanal], which “electroantennographic detector” value is on record?
A: Antennally-active

Q: Which “electroantennographic detector” value does the source give for `CCCCCCCCCCCCO` [dodecanol] here?
A: Antennally-active

Q: For `CCCCCCCCCCCCCCCCCCCC` [eicosane], which “electroantennographic detector” value is on record?
A: Antennally-active

Q: Which “electroantennographic detector” value does the source give for `CC(=O)CC/C=C(\C)CCC=C(C)C` [geranylacetone] here?
A: Antennally-active

Q: Which “electroantennographic detector” value does the source give for `CCCCCCCCCCCCCCCCC=O` [heptadecanal] here?
A: Antennally-active

Q: With `CCCCCCCCCCCCCCCCCO` [heptadecanol] as the compound, how does the “electroantennographic detector” value read?
A: Antennally-active

Q: Which “electroantennographic detector” value does the source give for `CCCCCCC=O` [heptanal] here?
A: Antennally-active

Q: Which “electroantennographic detector” value does the source give for `CCCCCCCO` [heptanol] here?
A: Antennally-active

Q: Which “electroantennographic detector” value does the source give for `CCCCCCCCCCCCCCCC=O` [hexadecanal] here?
A: Antennally-active

Q: With `CCCCCCCCCCCCCCCC` [hexadecane] as the compound, how does the “electroantennographic detector” value read?
A: Antennally-active

Q: For `CCCCCCCCCCCCCCCCO` [hexadecanol], which “electroantennographic detector” value is on record?
A: Antennally-active

Q: For `CCCCCC=O` [hexanal], which “electroantennographic detector” value is on record?
A: Antennally-active

Q: With `CCCCCCCCC=O` [nonanal] as the compound, how does the “electroantennographic detector” value read?
A: Antennally-active

Q: With `CCCCCCCCCO` [nonanol] as the compound, how does the “electroantennographic detector” value read?
A: Antennally-active

Q: With `CCCCCCCCCCCCCCCCCC=O` [octadecanal] as the compound, how does the “electroantennographic detector” value read?
A: Antennally-active

Q: With `CCCCCCCCCCCCCCCCCCO` [octadecanol] as the compound, how does the “electroantennographic detector” value read?
A: Antennally-active

Q: With `CCCCCCCC=O` [octanal] as the compound, how does the “electroantennographic detector” value read?
A: Antennally-active

Q: For `CCCCCCCCCCCCCCC=O` [pentadecanal], which “electroantennographic detector” value is on record?
A: Antennally-active

Q: For `CCCCCCCCCCCCCCC` [pentadecane], which “electroantennographic detector” value is on record?
A: Antennally-active

Q: For `CCCCCCCCCCCCCCCO` [pentadecanol], which “electroantennographic detector” value is on record?
A: Antennally-active

Q: With `CCCCCCCCCCCCCC=O` [tetradecanal] as the compound, how does the “electroantennographic detector” value read?
A: Antennally-active

Q: For `CCCCCCCCCCCCCC` [tetradecane], which “electroantennographic detector” value is on record?
A: Antennally-active

Q: Which “electroantennographic detector” value does the source give for `CCCCCCCCCCCCCCO` [tetradecanol] here?
A: Antennally-active

Q: Which “electroantennographic detector” value does the source give for `CCCCCCCCCCCCC=O` [tridecanal] here?
A: Antennally-active

Q: Which “electroantennographic detector” value does the source give for `CCCCCCCCCCCCCO` [tridecanol] here?
A: Antennally-active

Q: For `CCCCCCCCCCCO` [undecanol], which “electroantennographic detector” value is on record?
A: Antennally-active

Q: Which “electroantennographic detector” value does the source give for `CCCCCCCCCCCCCCCCCCCCC` [uneicosane] here?
A: Antennally-active

Same assay, conditions: male antenna, one female equivalent

Q: Which “EAD response to components of female T. bisselliella pheromone gland extract” value does the source give for `CCCC/C=C\CCCCCCCCC/C=C/C=O` [(E,Z)-2,13:octadecadienal] here?
A: EAD-active

Q: With `CCCC/C=C\CCCCCCCCC/C=C/CO` [(E,Z)-2,13:octadecadienol] as the compound, how does the “EAD response to components of female T. bisselliella pheromone gland extract” value read?
A: EAD-active

Same assay, conditions: male antenna, one male equivalent; similar responses with female antennae

Q: With `CCCCCC/C=C\CCCCCCCC(=O)OC` [(Z)-9-hexadecenoic acid methyl ester] as the compound, how does the “EAD response to components of male T. bisselliella body extract” value read?
A: EAD-active

Q: With `CCCCCCCCCCCCCCCC(=O)OC` [hexadecanoic acid methyl ester] as the compound, how does the “EAD response to components of male T. bisselliella body extract” value read?
A: EAD-active

Q: With `CCCCCCCCCCCCCCCCCC(=O)OC` [octadecanoic acid methyl ester] as the compound, how does the “EAD response to components of male T. bisselliella body extract” value read?
A: EAD-active

Test system: T. bisselliella
Assay: Arena bioassay: captures of moths on sticky traps baited with test or control stimuli
Format: in vivo, Tineola bisselliella
Conditions: Exps. 29-31; 16:Ester 480 ng plus Z9-16:Ester 840 ng tested together
Procedure: Tactic responses of T. bisselliella to volatile stimuli from larval habitat were assessed in a closed cylindrical Plexiglas container (125 cm diameter, 60 cm height). Thin cardboard discs (10 cm diameter) coated with Tanglefoot on the upper side were placed on the arena floor 80 cm apart from each other. Platforms suspended above the centre of the coated discs supported randomly assigned test or control stimuli. Control stimuli consisted of cardboard silhouettes visually resembling test stimuli. Per experiment 10 replicates with 25 adult moths each were employed. Moths were released during the scotophase from a Petri dish in the centre of the arena after 30-min of acclimation. After 12 hours of experimental time, moths captured on sticky discs (FIG. 1) were recorded as responders and statistically analysed.

Q: Which “trap captures, attraction by synthetic male pheromone components” value does the source give for `CCCCCC/C=C\CCCCCCCC(=O)OC` [(Z)-9-hexadecenoic acid methyl ester] here?
A: attracted both male and virgin female T. bisselliella

Q: Which “trap captures, attraction by synthetic male pheromone components” value does the source give for `CCCCCCCCCCCCCCCC(=O)OC` [hexadecanoic acid methyl ester] here?
A: attracted both male and virgin female T. bisselliella

Same assay, conditions: Exps. 34-37; tested together in various ratios

Q: With `CCCC/C=C\CCCCCCCCC/C=C/C=O` [(E,Z)-2,13:octadecadienal] as the compound, how does the “trap captures of males, attraction by synthetic female pheromone components” value read?
A: attracted male T. bisselliella

Q: For `CCCC/C=C\CCCCCCCCC/C=C/CO` [(E,Z)-2,13:octadecadienol], which “trap captures of males, attraction by synthetic female pheromone components” value is on record?
A: attracted male T. bisselliella

Same assay, conditions: geranylacetone (44 ng) and nonanal (3.5 μg) tested together, equivalent quantities; female or male moths

Q: For `CC(=O)CC/C=C(\C)CCC=C(C)C` [geranylacetone], which “trap captures versus dried muskrat pelt” value is on record?
A: more attractive than natural (muskrat) pelt

Q: With `CCCCCCCCC=O` [nonanal] as the compound, how does the “trap captures versus dried muskrat pelt” value read?
A: more attractive than natural (muskrat) pelt

Test system: T. bisselliella
Assay: not given
Conditions: literature refs 16, 17; cited from earlier work

Q: For `CCCC/C=C\CCCCCCCCC/C=C/C=O` [(E,Z)-2,13:octadecadienal], which “attractiveness as reported sex pheromone components” value is on record?
A: only moderately attractive

Q: With `CCCCCCCCCCCCCCC/C=C/C=O` [E2-octadecenal, reference compound] as the compound, how does the “attractiveness as reported sex pheromone components” value read?
A: only moderately attractive

From patent US6574913B2, “Semiochemical and sonic signals for monitoring and control of clothes moths” (priority 2001, dated 2003)
